One block for each molecule: values may come before it.
How the values were obtained:
Gyc-88EL/89Da = Gyc-88EL/89Da (Drosophila melanogaster, UniProt Q8INF0+Q9VEU6); format: biochemical
Gycα-99B/β-100B = Gycα-99B/β-100B (Drosophila melanogaster, UniProt Q07093+Q9VA09); format: biochemical
Gyc-88EL/89Db [1] = target: T1, Gyc-88EL/89Db (Drosophila melanogaster, UniProt Q8INF0+Q9VEU5); format: biochemical; conditions: for activation by NO-independent activator: COS-7 cell extracts, 4mM Mg2+
Gyc-88EL [2] = target: T2, Gyc-88EL (Drosophila melanogaster, UniProt Q8INF0); format: biochemical
T2 sequence (Q8INF0 1-1097): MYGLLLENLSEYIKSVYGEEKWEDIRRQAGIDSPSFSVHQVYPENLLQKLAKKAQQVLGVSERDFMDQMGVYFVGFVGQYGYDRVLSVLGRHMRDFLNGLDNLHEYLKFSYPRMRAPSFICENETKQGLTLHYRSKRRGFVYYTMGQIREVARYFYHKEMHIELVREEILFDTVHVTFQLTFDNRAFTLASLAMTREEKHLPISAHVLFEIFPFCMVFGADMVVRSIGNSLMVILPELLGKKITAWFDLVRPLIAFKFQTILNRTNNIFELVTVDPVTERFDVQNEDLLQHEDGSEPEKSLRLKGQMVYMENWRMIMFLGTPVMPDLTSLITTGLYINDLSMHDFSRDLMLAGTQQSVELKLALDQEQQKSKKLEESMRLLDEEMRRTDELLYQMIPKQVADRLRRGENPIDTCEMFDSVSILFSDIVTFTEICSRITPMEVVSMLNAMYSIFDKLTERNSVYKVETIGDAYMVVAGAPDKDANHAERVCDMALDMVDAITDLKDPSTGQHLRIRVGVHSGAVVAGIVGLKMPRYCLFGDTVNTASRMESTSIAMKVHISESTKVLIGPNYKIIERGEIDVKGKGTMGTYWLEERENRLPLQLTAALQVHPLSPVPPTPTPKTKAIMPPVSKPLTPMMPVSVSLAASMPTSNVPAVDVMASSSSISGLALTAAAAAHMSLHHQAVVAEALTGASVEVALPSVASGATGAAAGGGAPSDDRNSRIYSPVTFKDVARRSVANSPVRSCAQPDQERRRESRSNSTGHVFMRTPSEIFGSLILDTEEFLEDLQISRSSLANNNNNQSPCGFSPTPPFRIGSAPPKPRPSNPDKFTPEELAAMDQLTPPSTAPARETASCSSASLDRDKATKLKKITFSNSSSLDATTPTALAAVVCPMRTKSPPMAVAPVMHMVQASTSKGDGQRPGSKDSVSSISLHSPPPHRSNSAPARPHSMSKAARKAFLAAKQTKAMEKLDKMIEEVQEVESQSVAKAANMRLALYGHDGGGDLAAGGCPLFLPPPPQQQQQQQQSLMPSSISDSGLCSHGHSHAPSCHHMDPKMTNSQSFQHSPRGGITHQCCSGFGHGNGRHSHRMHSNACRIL

Gyc-88EL [3] = target: T2, Gyc-88EL; conditions: ref Langlais et al. 2004, cited from earlier work
Gyc-88EL/89Db [4] = target: T1, Gyc-88EL/89Db; conditions: ref Langlais et al. 2004; cited from earlier work
[5] = NO donor; cited from earlier work

T1 sequence (Q9VEU5 whole entry, one chain of several): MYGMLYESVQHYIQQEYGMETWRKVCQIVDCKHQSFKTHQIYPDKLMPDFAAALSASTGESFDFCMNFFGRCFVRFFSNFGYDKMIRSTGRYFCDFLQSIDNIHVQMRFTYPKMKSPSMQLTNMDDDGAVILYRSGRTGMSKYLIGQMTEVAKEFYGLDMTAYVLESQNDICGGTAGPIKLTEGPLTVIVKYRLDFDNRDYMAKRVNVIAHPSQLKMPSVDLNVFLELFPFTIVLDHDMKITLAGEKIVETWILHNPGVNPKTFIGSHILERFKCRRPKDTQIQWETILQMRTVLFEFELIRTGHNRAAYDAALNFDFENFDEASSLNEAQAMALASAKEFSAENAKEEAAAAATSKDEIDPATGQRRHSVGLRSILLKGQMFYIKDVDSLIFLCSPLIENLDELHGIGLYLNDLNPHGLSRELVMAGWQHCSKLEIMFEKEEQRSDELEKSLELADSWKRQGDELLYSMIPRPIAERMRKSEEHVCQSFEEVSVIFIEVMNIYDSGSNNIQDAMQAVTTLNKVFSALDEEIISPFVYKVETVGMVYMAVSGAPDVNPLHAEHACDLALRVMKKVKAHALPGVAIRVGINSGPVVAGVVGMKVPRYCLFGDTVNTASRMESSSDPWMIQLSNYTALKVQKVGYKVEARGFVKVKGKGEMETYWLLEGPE
Gyc-88EL/89Da, sequence (Q9VEU6 whole entry, one chain of several): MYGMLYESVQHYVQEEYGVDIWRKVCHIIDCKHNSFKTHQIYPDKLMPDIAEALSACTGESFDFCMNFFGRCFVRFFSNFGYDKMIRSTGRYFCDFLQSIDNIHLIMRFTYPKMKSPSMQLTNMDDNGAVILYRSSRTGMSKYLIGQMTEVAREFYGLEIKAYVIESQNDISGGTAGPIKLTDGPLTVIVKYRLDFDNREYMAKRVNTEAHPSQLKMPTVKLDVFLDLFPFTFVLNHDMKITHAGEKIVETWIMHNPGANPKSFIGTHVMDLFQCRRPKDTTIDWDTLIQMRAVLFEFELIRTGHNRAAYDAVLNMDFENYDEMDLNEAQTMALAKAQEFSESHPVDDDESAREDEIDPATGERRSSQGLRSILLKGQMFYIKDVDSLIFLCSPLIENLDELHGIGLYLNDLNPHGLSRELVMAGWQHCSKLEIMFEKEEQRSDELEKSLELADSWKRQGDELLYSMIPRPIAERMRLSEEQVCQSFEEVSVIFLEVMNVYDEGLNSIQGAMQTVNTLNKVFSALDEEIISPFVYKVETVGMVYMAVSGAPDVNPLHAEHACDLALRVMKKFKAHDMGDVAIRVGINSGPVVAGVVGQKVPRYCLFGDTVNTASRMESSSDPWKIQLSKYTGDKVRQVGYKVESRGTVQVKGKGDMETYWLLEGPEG

SMILES: Nc1nc(-c2nn(Cc3ccccc3F)c3ncccc23)ncc1C1CC1 [BAY 41-2272]
- activation by NO-independent activator (Gyc-88EL/89Da; COS-7 cell extracts, 4mM Mg2+): None of the atypical guanylyl cyclase subunit combinations showed any activation
- EC50 (Gycα-99B/β-100B): 7.3 µM
- activation at 30 μM (Gycα-99B/β-100B; 30 μM, 4mM Mg2+): over 100 fold
- activation by NO-independent activator (Gyc-88EL/89Db [1]): None of the atypical guanylyl cyclase subunit combinations showed any activation
- activation by NO-independent activator (Gyc-88EL [2]; COS-7 cell extracts, 4mM Mg2+): None of the atypical guanylyl cyclase subunit combinations showed any activation

SMILES: CCN(CC)/[N+]([O-])=N/O [DEA-NONOate, diethylamine- (DEA)-NONOate]
- maximal stimulation of guanylyl cyclase activity (Gyc-88EL/89Da; COS-7 cell extracts, 4mM Mg2+): No stimulation
- EC50 (Gyc-88EL/89Db [1]): ~0.1 µM
- DEA-NONOate-stimulated guanylyl cyclase activity (Gyc-88EL/89Db [1]; 1 μM DEA-NONOate, absence of ODQ, basal 208 ± 19): 676 ± 70 fmoles cGMP/min/mg protein
- concentration of maximal activation (Gyc-88EL/89Db [1]; bell-shaped response): about 1 μM
- maximal stimulation of guanylyl cyclase activity (Gyc-88EL [2]; COS-7 cell extracts, 4mM Mg2+): No stimulation
- activation at 100 μM (Gyc-88EL [3]; 100 μM): did not significantly activate
- activation at 100 μM (Gyc-88EL/89Db [4]): did not significantly activate

- Vmax Mn/Mg (Gyc-88EL/89Da; ratio of Vmax in Mn2+ to Mg2+): 46.9
- Vmax Mn/Mg (Gycα-99B/β-100B; ratio of Vmax in Mn2+ to Mg2+): 96.7
- Vmax Mn/Mg (Gyc-88EL/89Db [1]; ratio of Vmax in Mn2+ to Mg2+): 1.81
- Vmax Mn/Mg (Gyc-88EL [2]; ratio of Vmax in Mn2+ to Mg2+): 1.71
SMILES: Nc1nc2c(ncn2[C@@H]2O[C@H](COP(=O)(O)OP(=O)(O)OP(=O)(O)O)[C@@H](O)[C@H]2O)c(=O)[nH]1 [GTP]

SMILES: CCNCCN(CC)N(O)N=O [NOC-12]
- EC50 (Gyc-88EL/89Da): ~2 µM
- half-life [5]: 5.45 h
- EC50 (Gyc-88EL/89Db [1]): ~2 µM

SMILES: O=c1onc2cnc3ccccc3n12 [ODQ, 1H-[1,2,4]oxadiazolo [4,3,-a]quinoxaline-1-one]
- inhibition of NOC-12-stimulated activity (Gyc-88EL/89Da; 100 μM ODQ, data not shown): inhibited
- blocking of the NO-stimulation (Gycα-99B/β-100B; all forms of the soluble guanylyl cyclases): effective at blocking the NO-stimulation
- DEA-NONOate-stimulated guanylyl cyclase activity in the presence of ODQ (Gyc-88EL/89Db [1]; 1 μM DEA-NONOate + 100 μM ODQ, 676 ± 70 in the absence): 141 ± 21 fmoles cGMP/min/mg protein
- inhibition of NOC-12-stimulated activity (Gyc-88EL/89Db [1]; 100 μM ODQ, data not shown): inhibited
- basal guanylyl cyclase activity in the presence of ODQ (Gyc-88EL/89Db [1]; 100 μM ODQ, 208 ± 19 in the absence): 237 ± 13 fmoles cGMP/min/mg protein
- inhibition of the activation by sodium nitroprusside (Gyc-88EL [3]): ineffective

SMILES: CC(=O)NC(C(=O)O)C(C)(C)SN=O (centres unmarked) [SNAP, S-nitroso-N-acetylpenicillamine]
- EC50 (Gyc-88EL/89Da): ~10 µM
- EC50 (Gyc-88EL/89Db [1]): ~10 µM
- EC50 for activation (Gyc-88EL [2]; COS-7 cell extracts, 4mM Mg2+): not saturated with 100 μM SNAP

- activation by NO-independent activator (Gyc-88EL/89Da; COS-7 cell extracts, 4mM Mg2+): insensitivity
- activation by NO-independent activator (Gycα-99B/β-100B): only activate the conventional enzyme
- activation by NO-independent activator (Gyc-88EL/89Db [1]): insensitivity
- activation by NO-independent activator (Gyc-88EL [2]; COS-7 cell extracts, 4mM Mg2+): insensitivity
SMILES: OCc1ccc(-c2nn(Cc3ccccc3)c3ccccc23)o1 [YC-1]
